Data as given in patent publication US20240307374A1, “FORMULATION OF FURIN INHIBITOR FOR INHALATION” (BP ASSET V, INC., priority 2021, published 2024).
≈ marks a conversion by molar mass, not a printed value. Entries after “also recorded” stand apart in the source; their conditions may differ. Marks after values point to notes of the source that are not given here.

Experiments:
Format in all cases: physicochemical
[1] = Equilibrium solubility of freeform Type D in pH=4.0 and 5.0 citrate/phosphate buffers; details: for Form: XRPD of precipitate; for Form / solubility at 24 h / End pH (24 hours): citrate/phosphate buffer; for Form / solubility at 24 h / solid form after equilibrium (XRPD): 24 hours; for solubility at 24 h: aqueous buffer, thermodynamic from solid; for solid form after equilibrium (XRPD): RT
Description: The suspension was equilibrated via stirring (1000 rpm) for 24 hours. The suspension was centrifuged to obtain precipitate and supernatants. Solubility and pH were tested for the supernatants after filtration, and isolated precipitate was tested by XRPD.

[2] = Solubility of freeform Type D with sugars
Description: The samples were sonicated for about 2 minutes, and the samples were almost clear (little solid was observed) and filtered for clear solution, pH of the solutions were 3.5. About 68.5 mg lactose and sucrose were added into the two solutions, respectively. The two samples were clear after adding sugar, and pH of the two samples remained 3.5. pH of the two solutions was adjusted to 5.1 by adding 1 M NaOH, and no solid precipitated out after pH adjustment.
The three solutions were stored under 5° C. for three days, and no solid precipitated out after cooling. The concentration and pH were tested for each sample.

[3] = Humidity induced experiments (solid-state stability of freeform Type D under different humidities); details: ~7%, ~22%, ~43%, ~58%, ~84% RH, RT, 6 weeks
Description: The 3-mL vial was then placed into a 20-mL vial with 4 mL of the corresponding saturated salt solution. The 20-mL vial was sealed with a cap and kept at RT for the water vapor to interact with the solid.

[4] = In situ salt solubility test (citric acid, fumaric acid); details: for solubility: filtrate, read-out: Concentration (in situ salt solubility)
Description: The sample was almost clear (little solid was observed) and filtered for a solubility test.

[5] = Equilibrium solubility in pH buffers (3.0-8.0), 20% captisol and water
Description: Additional solids were added into the sample to generate suspension if clear solution obtained. The suspension was equilibrated via stirring (1000 rpm). The suspension was centrifuged to obtain precipitate and supernatants.
Solubility and pH were tested for the supernatants after filtration, and isolated precipitate was tested by XRPD.
• 1. pH=3.0 buffer (50 mM HCl+KCl): Weigh 365.39 mg KCl into a 100 mL volumetric flask (VF), and add 0.1 mL 1M HCl into the VF, and dilute to volume with water. • 2. pH=4.0 buffer (50 mM citrate): Weigh 56.74 mg citric acid and 60.18 mg trisodium citrate into a 10 mL volumetric flask, and dilute to volume with water. • 3. pH=5.0 buffer (50 mM citrate) Weigh 11.12 mg citric acid and 95.38 mg trisodium citrate into a 10 mL volumetric flask, and dilute to volume with water. • 4. pH=6.0 buffer (50 mM citrate) Weigh 11.04 mg citric acid and 130.2 mg trisodium citrate into a 10 mL volumetric flask, and dilute to volume with water. • 5. pH=6.0 buffer (50 mM phosphate) Weigh 8.7 mg Na2HPO4 and 52.6 mg NaH2PO4 into a 10 mL volumetric flask, and dilute to volume with water. • 6. pH=7.0 buffer (50 mM phosphate) Weigh 23.47 mg Na2HPO4 and 43.34 mg NaH2PO4into a 10 mL volumetric flask, and dilute to volume with water. • 7. pH=8.0 buffer (50 mM phosphate) Weigh 31.64 mg Na2HPO4 and 67.18 mg NaH2PO4into a 10 mL volumetric flask, and dilute to volume with water.

[6] = Solubility of freeform in acetone/H2O systems with various water activities; details: for solubility at 2 days: thermodynamic from solid
Description: To measure the solubility of freeform in acetone/H2O systems with various water activities, the above experiments were re-performed with addition of aw=0.3 acetone/H2O system. The suspension sample was centrifuged to obtain precipitate and supernatants. Solubility was tested for the supernatants after filtration, and isolated precipitate was tested by XRPD.

[7] = Approximate solubility at RT
Description: Four freeform isolation experiments were performed in different solvent with different acids. Solids were obtained in DCM/HCl and CHCl3/HCl system.
Approximately 2 mg solids were added into a 3-mL glass vial. Solvents in the following table were then added stepwise (50-50-200-700[…] for each step) into the vials and stirred until the solids were dissolved or a total volume of 1 mL was reached. The solubility results were used to guide the solvent selection in polymorph formation.

[8] = 30 mmol freeform Type D + 30 mmol citric acid, initial pH 3.6
[9] = 50 mmol freeform Type D + 50 mmol citric acid + ~200 mmol lactose, initial pH 5.1
[10] = 50 mmol freeform Type D + 50 mmol citric acid + ~200 mmol sucrose, initial pH 5.1
[11] = 1.1 equiv. of citric acid in water
[12] = 1.1 equivalent of fumaric acid in water
[13] = 20% Captisol (pH = 5.0, w/v), 24 hrs
[14] = pH = 3.0 buffer (50 mM HCl + KCl), 24 hrs
[15] = pH = 5.0 buffer (50 mM citrate), 24 hrs
[16] = pH = 6.0 buffer (50 mM citrate), 24 hrs
[17] = pH = 7.0 buffer (50 mM phosphate), 24 hrs
[18] = pH = 8.0 buffer (50 mM phosphate), 24 hrs

SMILES: CC(=O)NCC1CCN(Cc2cc(Oc3ccc(N4CCN(CCC(=O)O)CC4)nc3)nc(-c3cc(Cl)cc(Cl)c3)c2)CC1 [Freeform Type D]
- Form ([1]; initial pH 4.0, RT): Low crystallinity*
- Form ([1]; initial pH 5.0, RT): Freeform Type D
- solubility at 24 h ([1]; initial pH 4.0, RT): 30600 µg/mL (≈ 47.7 mM)
- solubility at 24 h ([1]; initial pH 5.0, RT): 1290 µg/mL (≈ 2.01 mM)
- End pH (24 hours) ([1]; initial pH 4.0, RT): 5.2
- End pH (24 hours) ([1]; initial pH 5.0, RT): 5.2
- solid form after equilibrium (XRPD) ([1]; pH=4.0 citrate/phosphate): Low crystallinity sample
- solid form after equilibrium (XRPD) ([1]; pH=5.0 citrate/phosphate): no form change
- Concentration [2, 8]: 18110 µg/mL
- End pH (24 hours) [2, 8]: 3.6
- Purity [2, 8]: 99.8 Area %
- Concentration [2, 9]: 26450 µg/mL
- End pH (24 hours) [2, 9]: 5.1
- Purity [2, 9]: 99.8 Area %
- Concentration [2, 10]: 26500 µg/mL
- End pH (24 hours) [2, 10]: 5.3
- Purity [2, 10]: 99.8 Area %
- form change after exposure to different humidity levels (XRPD) [3]: no form change; also recorded: kinetically stable for at least 6 weeks
- HPLC purity of filtrates [4, 11]: 99.9% Area %
- pH [4, 11]: 3.4
- HPLC purity of filtrates [4, 12]: 99.8% Area %
- pH [4, 12]: 4.0
- solubility ([4]; water with 1.1 equivalent of citric acid, pH 3.4, thermodynamic from solid, 1.1 equiv. of citric acid in water): 39300 µg/mL
- solubility ([4]; water with 1.1 equivalent of fumaric acid, pH 4, thermodynamic from solid, 1.1 equivalent of fumaric acid in water): 1100 µg/mL

SMILES: CC(=O)NCC1CCN(Cc2cc(Oc3ccc(N4CCN(CCC(=O)O)CC4)nc3)nc(-c3cc(Cl)cc(Cl)c3)c2)CC1 [Freeform Type A]
- solubility at 24 h ([5]; 50 mM phosphate buffer, 21 °C, pH 8, aqueous buffer, thermodynamic from solid, pH = 8.0 buffer (50 mM phosphate), RT, 24 hrs, read-out: S: solubility): 20 µg/mL (≈ 0.0312 mM)
- FC: form change (XRPD of precipitate) [5, 13]: N (N: solid form not changed)
- pH of supernatant (final pH) [5, 13]: 7.7
- S: solubility ([5]; 20% Captisol (pH = 5.0, w/v), RT, 24 hrs): 12.1 mg/mL
- FC: form change (XRPD of precipitate) ([5]; H2O, 24 hrs): N (N: solid form not changed)
- pH of supernatant (final pH) ([5]; H2O, 24 hrs): 6.8
- form change after equilibrium in all media ([5]; all media, 24 hours): No form change
- FC: form change (XRPD of precipitate) [5, 14]: N (N: solid form not changed)
- pH of supernatant (final pH) [5, 14]: 6.3
- S: solubility ([5]; pH = 3.0 buffer (50 mM HCl + KCl), RT, 24 hrs): 0.05 mg/mL
- pH of supernatant (final pH) ([5]; pH = 4.0 buffer (50 mM citrate), 24 hrs): 4.8
- S: solubility ([5]; pH = 4.0 buffer (50 mM citrate), RT, 24 hrs): >17.9^# mg/mL
- FC: form change (XRPD of precipitate) [5, 15]: N (N: solid form not changed)
- pH of supernatant (final pH) [5, 15]: 5.2
- S: solubility ([5]; pH = 5.0 buffer (50 mM citrate), RT, 24 hrs): 3.31 mg/mL
- FC: form change (XRPD of precipitate) [5, 16]: N (N: solid form not changed)
- pH of supernatant (final pH) [5, 16]: 6.1
- S: solubility ([5]; pH = 6.0 buffer (50 mM citrate), RT, 24 hrs): 0.18 mg/mL
- FC: form change (XRPD of precipitate) [5, 17]: N (N: solid form not changed)
- pH of supernatant (final pH) [5, 17]: 7.1
- FC: form change (XRPD of precipitate) [5, 18]: N (N: solid form not changed)
- pH of supernatant (final pH) [5, 18]: 8.0
- solubility ([6]; Acetone/H2O (605:395), aw 0.8, RT): 10.265 (Type A) mg/mL
- solubility at 2 days ([6]; acetone/H2O (605:395), aw 0.8, organic solvent or mixture, Acetone/H2O (605:395), aw 0.8, RT): 10300 µg/mL (≈ 16.1 mM)
- solubility at 2 days ([6]; acetone/H2O (858:142), aw 0.6, organic solvent or mixture, Acetone/H2O (858:142), aw 0.6, RT): 3290 µg/mL (≈ 5.12 mM)
- solubility at 2 days ([6]; acetone/H2O (950:50), aw 0.4, organic solvent or mixture, Acetone/H2O (950:50), aw 0.4, RT): 1160 µg/mL (≈ 1.8 mM)
- solubility at 2 days ([6]; acetone/H2O (973:27), aw 0.3, organic solvent or mixture, Acetone/H2O (973:27), aw 0.3, RT): 1440 µg/mL (≈ 2.24 mM)
- solubility at 2 days ([6]; water (aw 1), water, H2O, aw 1, RT): 10 µg/mL (≈ 0.0156 mM)
- solubility ([7]; 1,4-dioxane, organic solvent or mixture, thermodynamic from solid, 1,4-Dioxane, RT, read-out: Solubility): < 1900 µg/mL
- solubility ([7]; 2-MeTHF, organic solvent or mixture, thermodynamic from solid, 2-MeTHF, RT, read-out: Solubility): < 1700 µg/mL
- solubility ([7]; ACN, organic solvent or mixture, thermodynamic from solid, ACN, RT, read-out: Solubility): < 1900 µg/mL
- solubility ([7]; Anisole, organic solvent or mixture, thermodynamic from solid, Anisole, RT, read-out: Solubility): < 2000 µg/mL
- solubility ([7]; CHCl3, RT, solvent for freeform isolation): S < 1.2 mg/mL
- solubility ([7]; CHCl3, organic solvent or mixture, thermodynamic from solid, CHCl3, RT, read-out: Solubility): < 2100 µg/mL
- solubility ([7]; CPME, organic solvent or mixture, thermodynamic from solid, CPME, RT, read-out: Solubility): < 2000 µg/mL
- solubility ([7]; DCM, organic solvent or mixture, thermodynamic from solid, DCM, RT, read-out: Solubility): < 1800 µg/mL
- solubility ([7]; DMSO, organic solvent or mixture, thermodynamic from solid, DMSO, RT, read-out: Solubility): 17000 to 34000 µg/mL (≈ 26.5 to 53 mM)
- solubility ([7]; EtOAc, organic solvent or mixture, thermodynamic from solid, EtOAc, RT, read-out: Solubility): < 2000 µg/mL
- solubility ([7]; EtOH, organic solvent or mixture, thermodynamic from solid, EtOH, RT, read-out: Solubility): 7300 to 22000 µg/mL (≈ 11.4 to 34.3 mM)
- solubility ([7]; IPA, organic solvent or mixture, thermodynamic from solid, IPA, RT, read-out: Solubility): 1500 to 1800 µg/mL (≈ 2.34 to 2.81 mM)
- solubility ([7]; IPAc, organic solvent or mixture, thermodynamic from solid, IPAc, RT, read-out: Solubility): < 1900 µg/mL
- solubility ([7]; MIBK, organic solvent or mixture, thermodynamic from solid, MIBK, RT, read-out: Solubility): < 2100 µg/mL
- solubility ([7]; MTBE, organic solvent or mixture, thermodynamic from solid, MTBE, RT, read-out: Solubility): < 1900 µg/mL
- solubility ([7]; MeOH, organic solvent or mixture, thermodynamic from solid, MeOH, RT, read-out: Solubility): > 40000 µg/mL
- solubility ([7]; THF, organic solvent or mixture, thermodynamic from solid, THF, RT, read-out: Solubility): 4000 to 8000 µg/mL (≈ 6.23 to 12.5 mM)
- solubility ([7]; Toluene, organic solvent or mixture, thermodynamic from solid, Toluene, RT, read-out: Solubility): < 2100 µg/mL
- solubility ([7]; acetone, organic solvent or mixture, thermodynamic from solid, Acetone, RT, read-out: Solubility): < 1900 µg/mL
- solubility ([7]; n-Heptane, organic solvent or mixture, thermodynamic from solid, n-Heptane, RT, read-out: Solubility): < 2200 µg/mL
- solubility ([7]; water, thermodynamic from solid, H2O, RT, read-out: Solubility): < 2000 µg/mL
